The values below come from US20110130374A1, “Small Pyrimidine Derivatives and Methods of Use Thereof” (BIOSEARCH(2007) LTD., priority 2009, published 2011).

SMILES strings stand for the structures.

Format in all cases: cell-based
The test system of assay [1] is MDA-MB231 breast cancer cells. Briefly: Soft agar colony formation, MDA-MB231 breast cancer cells. Conditions: 14 days, MTT. How it is done:
The assay was done using CYTOSELECT™ 96-Well In Vitro Tumor Sensitivity Assay kit from Cell Biolabs, Inc. (San-Diego, Calif.). The cells were grown for 14 days with RPMI and 10% FBS medium in the presence of the indicated concentration of Compound 1 (PRT7000467). The quantification of the colony formation on soft agar was done using MTT reagent after solubilization of the agar (all the materials are supplied in the kit). The IC50 value was calculated using Prism software.

Assay [2] relates to D122-luc (lung-mouse) cells. Briefly: Transwell cell migration assay, D122-luc. An excerpt: (§1) A375 (melanoma) (CRL-1619, ATCC, Manassas, Va., USA), A431 (melanoma) (CRL-2592, ATCC, Manassas, Va., USA), A2058 (melanoma) (CRL-11147, ATCC, Manassas, Va., USA), MDA-MB-231 (breast) (HTB-26, ATCC, Manassas, Va., USA), LS175T (colon) (ATCC, Manassas, Va., USA), HT29 (colon) (HTB-38, ATCC, Manassas, Va., USA), PC3 (prostate) (CRL-1435, ATCC, Manassas, Va., USA), Panc03.27 (pancreatic) (ATCC, Manassas, Va., USA), 4T1 (breast-mouse) (CRL-2539, ATCC, Manassas. Va., USA), D122 (lung-mouse) (the Weizmann Institute of Science), D122-luc (lung-mouse) (the Weizmann Institute of Science), and B16 F10.9 (melanoma-mouse) cells (Caliper Life Sciences, Hopkinton Mass.), were grown in RPMI medium supplemented with 10% FBS. HUVEC cells were grown in Endothelial Cell Growth Medium 2 and THP1 cells were grown in RPMI medium supplemented with 10% FBS, 2 mM L-Glutamine, 1.5 g/L sodium bicarbonate, 10 mM Hepes, 1 mM sodium pyruvate, 4.5 g/L glucose and 0.05 mM 2-mercaptoethanol. The cells were starved for 24 hours in medium without FBS. […] Cells that migrated to the lower side of the membrane were stained with Calcein-AM (Sigma) and images were taken with a fluorescence microscope. The number of migrating cells was quantified by ImageJ software and the IC50 values were calculated using Prism software (Graphpad).

The next assay has as its system LS175T (colon) cells. In words: Transwell cell migration assay, LS175T.
Source text: as §1

The test system of the next assay is D122 (lung-mouse) cells. In words: Transwell cell migration assay, D122.
Source text: as §1

The next assay deals with A2058 (melanoma) cells. In words: Transwell cell migration assay, A2058. Conditions: Homo sapiens.
Source text: as §1

Another assay relates to HUVEC cells. In words: Transwell cell migration assay, HUVEC. Particulars: Homo sapiens, Endothelial.
Source text: as §1

In general, IC50 refers to the point on the concentration scale where inhibition reaches its midpoint. Read a high IC50 as lower potency. For `Cc1cc(C)nc(NS(=O)(=O)c2ccc(NC(=O)/C(=C\c3cccs3)NC(=O)c3cccs3)cc2)n1` [Compound 1], the “soft agar colony formation” value in assay [1] (MDA-MB231 breast cancer cells) is given as “inhibits soft agar colony formation”. In addition, in assay [1] (MDA-MB231 cells), the “LD50 in the soft agar colony formation assay” value was found to be 13.08 µM. Further, the IC50 in assay [2] is 1.6 µM; in the assay with LS175T (colon) cells it was 1 µM; with D122 (lung-mouse) cells, 1.4 µM; with A2058 (melanoma) cells, 3.5 µM; in the assay with HUVEC cells, 2.9 µM.
